Assay results from ChEMBL document CHEMBL1201862, “PubChem BioAssay data set” (2004).
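Interpolation was linear, between the two tested concentrations surrounding the appropriate level; five concentrations were tested over 48 hours in 96-well plates. GI50 = concentration required for 50% inhibition of growth.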 Activity calls are given as the source filed them. Rule as the data show it: active = GI50 up to about 1.1 µM and inactive = higher.

Legend:
Experiment in all cases: NCI tumour cell line growth inhibition, 48 h
HOP-62 = tested on: HOP-62
UACC-257 = tested on: UACC-257
A549 = tested on: A549
SN12C = tested on: SN12C
A498 = tested on: A498
NCI-H460 = tested on: NCI-H460
HCC 2998 = tested on: HCC 2998
Malme-3M = tested on: Malme-3M
HT-29 = tested on: HT-29
DMS-273 = tested on: DMS-273
DLD-1 = tested on: DLD-1
OVCAR-4 = tested on: OVCAR-4
KM-20L2 = tested on: KM-20L2
XF498 = tested on: XF498
OVCAR-5 = tested on: OVCAR-5
COLO 205 = tested on: COLO 205
SF-295 = tested on: SF-295
SNB-75 = tested on: SNB-75
MOLT-4 = tested on: MOLT-4
SF-539 = tested on: SF-539
SR = tested on: SR
LOX IMVI = tested on: LOX IMVI
KM12 = tested on: KM12
IGROV-1 = tested on: IGROV-1
HCT-15 = tested on: HCT-15
HOP-92 = tested on: HOP-92
M19-MEL = tested on: M19-MEL
HCT-116 = tested on: HCT-116
TK-10 = tested on: TK-10
SF-268 = tested on: SF-268
SK-OV-3 = tested on: SK-OV-3
LXFL 529 = tested on: LXFL 529
UACC-62 = tested on: UACC-62
ACHN = tested on: ACHN
RXF 631 = tested on: RXF 631
U-251 = tested on: U-251
SW-620 = tested on: SW-620
SK-MEL-28 = tested on: SK-MEL-28
OVCAR-8 = tested on: OVCAR-8
OVCAR-3 = tested on: OVCAR-3
NCI-H23 = tested on: NCI-H23
RXF 393 = tested on: RXF 393
RPMI-8226 = tested on: RPMI-8226
CAKI-1 = tested on: CAKI-1
786-0 = tested on: 786-0
HOP-18 = tested on: HOP-18
UO-31 = tested on: UO-31
NCI-H226 = tested on: NCI-H226
SNB-78 = tested on: SNB-78
SK-MEL-5 = tested on: SK-MEL-5
DMS-114 = tested on: DMS-114
M14 = tested on: M14
SNB-19 = tested on: SNB-19
K562 = tested on: K562
T47D = tested on: T47D
MDA-MB-231 = tested on: MDA-MB-231
PC-3 = tested on: PC-3
SK-MEL-2 = tested on: SK-MEL-2
HL-60 = tested on: HL-60
MDA-N = tested on: MDA-N
CCRF-CEM = tested on: CCRF-CEM
DU-145 = tested on: DU-145
NCI/ADR-RES = tested on: NCI/ADR-RES
NCI-H522 = tested on: NCI-H522
EKVX = tested on: EKVX
Hs-578T = tested on: Hs-578T
MDA-MB-435 = tested on: MDA-MB-435
BT-549 = tested on: BT-549
MCF7 = tested on: MCF7

CC(=O)N1CCC(=O)/C(=C/c2ccccc2)C1
GI50 (HOP-62): 89.3 µM (inactive)
GI50 (UACC-257): > 100 µM (inactive)
GI50 (A549): 71.9 µM (inactive)
GI50 (SN12C): 18.2 µM (inactive)
GI50 (A498): 56.5 µM (inactive)
GI50 (NCI-H460): 27.7 µM (inactive)
GI50 (HCC 2998): 33.1 µM (inactive)
GI50 (Malme-3M): 91.2 µM (inactive)
GI50 (HT-29): 20.3 µM (inactive)
GI50 (DMS-273): 33 µM (inactive)
GI50 (DLD-1): 24.1 µM (inactive)
GI50 (OVCAR-4): 19.3 µM (inactive)
GI50 (KM-20L2): 27.4 µM (inactive)
GI50 (XF498): 64 µM (inactive)
GI50 (OVCAR-5): > 100 µM (inactive)
GI50 (COLO 205): 34.6 µM (inactive)
GI50 (SF-295): 42.8 µM (inactive)
GI50 (SNB-75): 37.1 µM (inactive)
GI50 (MOLT-4): 33.2 µM (inactive)
GI50 (SF-539): 23.3 µM (inactive)
GI50 (SR): 24.5 µM (inactive)
GI50 (LOX IMVI): 16.1 µM (inactive)
GI50 (KM12): 24.3 µM (inactive)
GI50 (IGROV-1): 19.8 µM (inactive)
GI50 (HCT-15): 17.1 µM
GI50 (HOP-92): 33.1 µM (inactive)
GI50 (M19-MEL): 20.4 µM (inactive)
GI50 (HCT-116): 18.1 µM (inactive)
GI50 (TK-10): 97.3 µM (inactive)
GI50 (SF-268): 20.5 µM (inactive)
GI50 (SK-OV-3): 75.2 µM (inactive)
GI50 (LXFL 529): 21.9 µM (inactive)
GI50 (UACC-62): 24.7 µM (inactive)
GI50 (ACHN): 22.1 µM (inactive)
GI50 (RXF 631): 28.9 µM (inactive)
GI50 (U-251): 17.1 µM (inactive)
GI50 (SW-620): 17.6 µM (inactive)
GI50 (SK-MEL-28): 18 µM (inactive)
GI50 (OVCAR-8): 21.2 µM (inactive)
GI50 (OVCAR-3): 33.3 µM (inactive)
GI50 (NCI-H23): 32.4 µM (inactive)
GI50 (RXF 393): 22.8 µM (inactive)
GI50 (RPMI-8226): 42.7 µM (inactive)
GI50 (CAKI-1): 15.5 µM (inactive)
GI50 (786-0): 27.7 µM (inactive)
GI50 (HOP-18): 23.2 µM (inactive)
GI50 (UO-31): > 100 µM (inactive)
GI50 (NCI-H226): > 100 µM (inactive)
GI50 (SNB-78): 38.5 µM (inactive)
GI50 (SK-MEL-5): 34 µM (inactive)
GI50 (DMS-114): 15.8 µM (inactive)
GI50 (M14): 33.8 µM (inactive)
GI50 (SNB-19): > 100 µM (inactive)
GI50 (K562): 37.8 µM (inactive)

CC1OC(CC(=O)O)CC2=C1C(=O)c1c(O)cccc1C2=O (stereo not drawn) [NANAOMYCIN]
GI50 (T47D): 188 nM (active)
GI50 (HOP-62): 1.55 µM (inactive)
GI50 (UACC-257): 0.0968 µM (active)
GI50 (A549): 2.08 µM (inactive)
GI50 (SN12C): 0.29 µM (active)
GI50 (A498): 0.9 µM (active)
GI50 (NCI-H460): 1.74 µM (inactive)
GI50 (HCC 2998): 0.468 µM (active)
GI50 (Malme-3M): 0.203 µM (active)
GI50 (MDA-MB-231): 218 nM (active)
GI50 (HT-29): 0.0624 µM (active)
GI50 (DMS-273): 0.212 µM (active)
GI50 (DLD-1): 0.0192 µM (active)
GI50 (OVCAR-4): 0.274 µM (active)
GI50 (KM-20L2): 0.225 µM (active)
GI50 (XF498): 0.166 µM (active)
GI50 (PC-3): 241 nM (active)
GI50 (OVCAR-5): 1.39 µM (inactive)
GI50 (COLO 205): 0.0474 µM (active)
GI50 (SK-MEL-2): 331 nM (active)
GI50 (SF-295): 1.08 µM (active)
GI50 (HL-60): 16 nM (active)
GI50 (SNB-75): 1.5 µM (inactive)
GI50 (MOLT-4): 0.0309 µM (active)
GI50 (SF-539): 1.04 µM (active)
GI50 (MDA-N): 182 nM (active)
GI50 (SR): 0.0336 µM (active)
GI50 (LOX IMVI): 0.0421 µM (active)
GI50 (KM12): 1.27 µM (inactive)
GI50 (IGROV-1): 0.36 µM (active)
GI50 (HCT-15): 0.0538 µM
GI50 (HOP-92): 0.125 µM (active)
GI50 (M19-MEL): 0.0845 µM (active)
GI50 (HCT-116): 0.0499 µM (active)
GI50 (TK-10): 0.929 µM (active)
GI50 (CCRF-CEM): 19.4 nM (active)
GI50 (SF-268): 0.316 µM (active)
GI50 (SK-OV-3): 4 µM (inactive)
GI50 (LXFL 529): 0.0851 µM (active)
GI50 (UACC-62): 0.116 µM (active)
GI50 (DU-145): 1.12 µM (inactive)
GI50 (ACHN): 0.229 µM (active)
GI50 (RXF 631): 0.6 µM (active)
GI50 (NCI/ADR-RES): 179 nM (active)
GI50 (U-251): 1.03 µM (active)
GI50 (SW-620): 0.0361 µM (active)
GI50 (SK-MEL-28): 0.063 µM (active)
GI50 (NCI-H522): 27.8 nM (active)
GI50 (EKVX): 708 nM (active)
GI50 (OVCAR-8): 0.128 µM (active)
GI50 (OVCAR-3): 0.0817 µM (active)
GI50 (NCI-H23): 0.56 µM (active)
GI50 (Hs-578T): 142 nM (active)
GI50 (RXF 393): 0.0242 µM (active)
GI50 (RPMI-8226): 0.0447 µM (active)
GI50 (CAKI-1): 0.0955 µM (active)
GI50 (786-0): 0.137 µM (active)
GI50 (HOP-18): 2.41 µM (inactive)
GI50 (UO-31): 0.483 µM (active)
GI50 (NCI-H226): 0.977 µM (active)
GI50 (SNB-78): 0.13 µM (active)
GI50 (SK-MEL-5): 0.289 µM (active)
GI50 (MDA-MB-435): 138 nM (active)
GI50 (BT-549): 116 nM (active)
GI50 (DMS-114): 0.129 µM (active)
GI50 (M14): 0.14 µM (active)
GI50 (MCF7): 142 nM (active)
GI50 (SNB-19): 1.66 µM (inactive)
GI50 (K562): 0.022 µM (active)
